Test results from the pKa sets of Baltruschat and Czodrowski (2020).

Conditions: acidic group

In order of falling pKa:
1. CCCO  16
2. CC1NCCc2c1[nH]c1ccc(N)cc21 (stereo not drawn)  16
3. O=C1CCC([O-])=C1O  12.9
4. Cc1cc(C(C)(C)C)c(O)c(C(C)(C)C)c1  12.6
5. CCC(CC)C1(CC)C(=O)[N-]C(=S)NC1=O  12.4
6. O=c1[nH]c2ccccc2nc1[O-]  12.3
7. COc1ccc(O)c(CN(C)C)c1  11.5
8. Nc1ccc(O)cc1[O-]  11.3
9. ON=C(c1ccccc1)c1ccccc1  11.3
10. CCP(=O)(CC)CC=O  10.9
11. O/N=C/c1ccc2c(c1)OCO2  10.8
12. Cn1c(=S)[nH]c2cc3c(cc21)CCCC3  10.8
13. CN(C)c1ccc(O)cc1  10.2
14. S=C(Nc1ccc(Cl)cc1)c1ccc(Cl)cc1  10.2
15. C[n+]1c2ccccc2cc2c(N)cccc21  10
16. O=C1NC(=O)c2ccccc21  9.91
17. Cc1ccccc1B(O)O  9.74
18. Cc1ccc2c(c1)C([P+](c1ccccc1)(c1ccccc1)c1ccccc1)c1ccccc1-2 (stereo not drawn)  9.38
19. Nc1nc2ncncc2[nH]1  9.36
20. O=[N+]([O-])c1ccc2c(c1)Cc1cc(O)ccc1-2  9.01
21. NS(=O)(=O)c1cccc(C(F)(F)F)c1  8.98
22. Oc1ccc2ncccc2c1  8.82
23. Oc1ccc(F)cc1C[NH+]1CCCCC1  8.81
24. CCOC(=O)COc1ccc(Cc2ccc(O)c(C[NH3+])c2)c(Cl)c1Cl  8.73
25. CC1(C)NC(=S)NC1=O  8.71
26. CC[C@]1(c2ccccc2)NC(=O)NC1=O  8.5
27. C[n+]1ccccc1/C=C/c1ccc(O)cc1  8.4
28. CCCCc1c(-c2ccccc2)n[nH]c1O  8.2
29. Oc1cccc2c1-c1c(O)cccc1-2  8.16
30. CCCc1cc(Cl)cc(Cl)c1O  8.1
31. O=C([O-])C(CO)[NH2+]Cc1cc(Cl)ccc1O (stereo not drawn)  7.95
32. CC(=O)c1ccc(O)c2ncccc12  7.75
33. Cc1cc(Br)cc(Br)c1O  7.6
34. O=[N+]([O-])c1cccc(S(=O)(=O)Nc2ccccc2)c1  7.5
35. Cc1cccc(C(C)[N+](=O)[O-])c1 (stereo not drawn)  7.49
36. O=c1cc(-c2ccccc2)oc2cc(O)ccc12  7.39
37. CCCCCCCCCc1c(-c2ccccc2)nn(-c2ccccc2)c1O  7.2
38. CC(c1cccc(F)c1)[N+](=O)[O-] (stereo not drawn)  7.05
39. O=Cc1ccncc1O  6.77
40. C[S+](C)CC(=O)c1ccc([N+](=O)[O-])cc1  6.7
41. O=C1CC(S)C(=O)N1 (stereo not drawn)  6.65
42. Nc1c2ccccc2[nH+]c2cc(O)ccc12  6.63
43. Cc1nnc(C)n1O  6.5
44. CCC[Se](=O)O  5.25
45. CC(C(N)=O)S(=O)(=O)NC(N)=O (stereo not drawn)  5.21
46. Cc1ccccc1[N+](C)(C)O  4.78
47. O=C1C[C@@H](C(=O)O)[C@@H](C(=O)[O-])O1  4.5
48. C=C(C)[C@H]1C[NH2+][C@H](C(=O)[O-])[C@H]1CC(=O)O  4.43
49. Cc1cc(C(=O)O)cs1  4.24
50. CSc1ccc(C(=O)O)cc1  4.23
51. COc1cc(C(=O)O)ccc1C  4.13
52. CC(C)C1CC(CC(=O)O)[NH2+]C1C(=O)[O-] (stereo not drawn)  4
53. O=[N+]([O-])c1ccc([Se](=O)O)cc1  4
54. O=C(O)[C@@H]1O[C@H](Oc2ccc3oc4cccc(O)c4c(=O)c3c2)[C@@H](O)[C@H](O)[C@H]1O  3.94
55. O=C(O)c1csc(Cl)c1  3.8
56. COCC(=O)O  3.53
57. O=Cc1cc([N+](=O)[O-])cc(Br)c1O  3.48
58. O=C(O)C1(C(=O)O)CCCC1  3.24
59. CNC(=O)/C=C(/C)C(=O)O  3.23
60. O=C(O)/C=C\c1c[nH]c[nH+]1  3
61. O=C(O)c1ccccc1I  2.93
62. O=C(O)c1cccc([N+](=O)[O-])c1C(=O)c1ccccc1  2.87
63. Oc1cc[n+](OCc2ccccc2)cc1  2.58
64. CC[NH2+]CC(=O)O  2.31
65. CC(C#N)(Cc1ccccc1)C(=O)O (stereo not drawn)  2.29
66. Nc1nc[nH+]c(S)c1N  2.21
67. O=C(O)c1ccc([N+](=O)[O-])c2cccnc12  1.41
68. O=[N+]([O-])c1cccc(S(=O)O)c1  1.21
69. CCCCNC(O)=S  0.67
70. O=S(=O)(O)c1cccc(C(F)(F)F)c1  -6.93

Same assay, conditions: basic group

In order of falling pKa:
1. CN(C)c1cccc2c(S(=O)(=O)[N-]CCN3CCNCCNCCNCC3)cccc12  11.8
2. C[Si](C)(C)CCN  11
3. CCC(C)NC(C)C (stereo not drawn)  11
4. [O-]c1cc2ccccc2cc1C1=NCCN1  10.8
5. CN(C)Cc1cc(Br)ccc1[O-]  10.7
6. CN(C)CCCCCCCCCCNC(=O)/C=N/[O-]  10.6
7. CC(C)CNC(C)C  10.6
8. CNC(C)C(=O)[O-] (stereo not drawn)  10.2
9. CCN(CC)Cc1ccccc1OC  10.2
10. C/N=c1/oc2c(n1C)CCCC2  10.2
11. CN(C)Cc1cc(C(=O)c2ccccc2)ccc1[O-]  10.2
12. CCN(CC)CCCCC#N  10.1
13. NCCCc1cccnc1  10.1
14. CN(C)CCCCC(=O)Oc1cccc([N+](=O)[O-])c1  10.1
15. C[C@H](O)C(=O)C1=Nc2c([O-])nc(N)nc2NC1  10.1
16. c1cc(N2CCCC2)c2c(N3CCCC3)cccc2c1  9.97
17. NCCCCl  9.89
18. C(=C\CN1CCCCC1)/CN1CCCCC1  9.7
19. ClCC1CC2CCN1CC2 (stereo not drawn)  9.68
20. Nc1ccc2cc3ccc(N)cc3nc2c1  9.65
21. CN1C(=N)Cc2ccccc21  9.6
22. CCN(CC)CCN(CC)CC  9.55
23. CCCCCCCCCNCc1ccc(C)cc1  9.48
24. CCN1CC[C@]2(C)c3cc(O)ccc3C[C@H]1[C@H]2C  9.42
25. NCC(O)CO (stereo not drawn)  9.3
26. CCc1cnccc1N  9.17
27. COc1ccc2c3c1O[C@H]1CCC[C@H]4[C@H](NCC[C@]314)[C@@H]2O  9.17
28. CNCCC(=O)c1ccccc1  9
29. OCC1=CCN2CC[C@@H](O)[C@@H]12  8.92
30. CC(O)CNCCO (stereo not drawn)  8.81
31. COc1ccc(O)c(CN(C)C)c1  8.7
32. C#CC(C)(C)N(C)C(C)C  8.7
33. NC(=O)CC(=O)c1cccnc1  8.61
34. Nc1nc([S-])c2ncn([C@H]3O[C@@H](CO)[C@H](O)[C@@H]3O)c2n1  8.34
35. CNCC(=O)NC  8.28
36. NC(=O)CC(=O)c1ccccn1  8.23
37. NCc1cc(Cl)ccc1[N+](=O)[O-]  8.19
38. CCN(CC)CC(=O)Nc1ccc([N+](=O)[O-])cc1  8.05
39. c1ccc(C(OCCN2CCCCC2)c2ccccc2)cc1  8.03
40. C=CCC(C)(CN(CC)CC)OC(=O)c1ccccc1 (stereo not drawn)  7.8
41. Cc1ccc(NC(=O)CN2CCCCC2)c(C)c1  7.8
42. Nc1nc2cc3c(cc2[nH]1)CCCC3  7.69
43. CCNNCC  7.66
44. CCCNc1ccncc1S(=O)(=O)NC(=O)NC(C)C  7.58
45. CC(CN1CCCCC1)C(C#N)(c1ccccc1)c1ccccc1 (stereo not drawn)  7.54
46. O=C1C[C@H]2OCC(S(=O)(=O)[O-])=C3CN4CC[C@@]56c7ccccc7N1[C@@H]5[C@@H]2[C@@H]3C[C@@H]46  7.54
47. COC(=O)C(N)Cc1c[nH]cn1 (stereo not drawn)  7.35
48. CC[NH+](CC)CCC(C)Nc1c2ccc(Cl)cc2nc2ccc(OC)cc12 (stereo not drawn)  7.2
49. Nc1ccncc1Br  7.15
50. O=[N+]([O-])c1cccc2nccc(NCCCO)c12  7.06
51. CC(O)CNCC[NH3+] (stereo not drawn)  6.94
52. C[NH+](C)CCCN  6.74
53. CC(C)(C)c1ccnc(C(C)(C)C)c1  6.7
54. CN(C)c1cccnc1  6.67
55. CNN(C)C  6.64
56. CCOc1ccc2[nH]c(CC)nc2c1  6.27
57. COC(=O)C(C)(C)c1c[nH]c(CO)n1  6.18
58. Cc1c(Cn2ccnc2)oc2ccc(C(=O)[O-])cc12  6.08
59. Cc1ccc2[nH]cnc2c1  5.81
60. CC(C)[NH+]1CCC(NN)CC1  5.75
61. OCCCCCc1cccnc1  5.72
62. NC(=O)CCc1ccncc1  5.58
63. Cn1cc(N)cn1  5.52
64. Oc1ccc2ncccc2c1  5.26
65. COc1ccc(N)cc1C[NH3+]  5.24
66. Nc1ccc2c(c1)CCCC2  5.2
67. C[NH+]1CCCC1c1cncc2[nH]c3ccccc3c12 (stereo not drawn)  5.17
68. Cc1nc2cc([N+](=O)[O-])ccc2[nH]1  5.16
69. Cc1cnc2ccccc2c1  5.15
70. Nc1nc(N)nc(N)n1  5.06
71. CC1CN=C(C(C)(C)C)S1 (stereo not drawn)  5.02
72. c1ccc(-c2ccncc2)nc1  4.77
73. Cc1cccc(NCCS)c1  4.68
74. Nc1nc2ncncc2[nH]1  4.68
75. C=CC(C)Nc1ccccc1 (stereo not drawn)  4.57
76. Cc1cc(-c2ccccn2)nn1C  4.52
77. N/C(=N\O)c1ccccc1N  4.5
78. CNc1cc[n+](C)c([O-])n1  4.47
79. c1cc2c(nn1)CCCC2  4.3
80. CC(C)[NH2+]CC(O)c1cccc(N)c1 (stereo not drawn)  4.22
81. Cc1ccc2c(c1)ncn2[C@H]1OC[C@H](O)[C@@H](O)[C@@H]1O  4.17
82. CCOc1cccc(N)c1  4.15
83. O=Cc1ccncc1O  4.05
84. CC(=O)c1ccc(O)c2ncccc12  4
85. Nc1nccc(-c2csc(N)n2)n1  4
86. Clc1ccc(-c2ccc(Cl)cn2)nc1  3.96
87. Brc1c[nH]cn1  3.8
88. [NH3+]Cc1cccnc1  3.71
89. Cc1nc(C)nc(N)n1  3.6
90. Nc1cc(Cl)cc(C[NH3+])c1  3.54
91. CC(C)[NH+](CCC(c1ccccc1)c1ccccn1)C(C)C (stereo not drawn)  3.2
92. CCN(CC)c1nnc(-c2ccccc2)s1  3.09
93. CCNc1nnc(-c2ccccc2)s1  3
94. Nc1ccc(C(=O)c2ccc(N)cc2)cc1  2.92
95. O=[N+]([O-])c1ccc(O)c2ncccc12  2.88
96. CCc1ccc(/N=N/c2ccc(N(C)C)cc2)cc1CC  2.58
97. Nc1cc(Br)cc(Br)c1  2.49
98. Cc1ccc2c(c1)N1CC[NH+]2CC1  2.4
99. C[NH+]1CCN(C(c2ccccc2)c2ccccc2)CC1  2.16
100. Clc1cn[nH]c1  1.24
101. Cc1nc2ccccc2n(C)c1=O  0.51
102. Nc1nnnn1-c1ccc([N+](=O)[O-])cc1  0.34
103. Cc1cc(-n2[nH+]c(C)cc2C)[nH]n1  -2.4
